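Growth conditions: 96-well plates. Treatment: test compound, 48 hours, 5 concentrations. Analysis: linear interpolation between bracketing concentrations; unreached endpoints set to highest concentration. GI50 marks 50% less growth.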 Activity calls are given as the source filed them. Cut-off read from the data, not from the text of the source: active = GI50 up to about 1.1 µM and inactive = higher. Where a SMILES comes first, the peptide text is derived from it.
Tests used:
Assay in all cases: DTP human tumour cell line panel, 48 h
SNB-75 = tested on: SNB-75
HT-29 = tested on: HT-29
Malme-3M = tested on: Malme-3M
KM12 = tested on: KM12
U-251 = tested on: U-251
HCT-116 = tested on: HCT-116
HOP-62 = tested on: HOP-62
MDA-MB-435 = tested on: MDA-MB-435
OVCAR-8 = tested on: OVCAR-8
UACC-62 = tested on: UACC-62
MOLT-4 = tested on: MOLT-4
SK-OV-3 = tested on: SK-OV-3
NCI-H23 = tested on: NCI-H23
MDA-N = tested on: MDA-N
PC-3 = tested on: PC-3
ACHN = tested on: ACHN
786-0 = tested on: 786-0
M14 = tested on: M14
MCF7 = tested on: MCF7
NCI-H460 = tested on: NCI-H460

Measured: GI50

COc1ccc(/C=N/Nc2nnc3c(n2)c2ccccc2c2nn(-c4ccccc4Cl)nc23)cc1
inactive: SNB-75 > 100 µM | HT-29 > 100 µM | Malme-3M > 100 µM | KM12 > 100 µM | U-251 > 100 µM | HCT-116 > 100 µM | HOP-62 > 100 µM | MDA-MB-435 > 100 µM | OVCAR-8 > 100 µM | UACC-62 > 100 µM | MOLT-4 > 100 µM | SK-OV-3 > 100 µM | NCI-H23 > 100 µM | MDA-N > 100 µM | PC-3 > 100 µM | ACHN > 100 µM | 786-0 > 100 µM | M14 > 100 µM

COc1ccc(N2C(=O)CC(C3CC(C(C)(C)C)CCC3=O)C2=O)cc1 (configuration not stated)
inactive: SNB-75 > 100 µM | MCF7 > 100 µM | HT-29 > 100 µM | KM12 > 100 µM | U-251 > 100 µM | HCT-116 > 100 µM | HOP-62 > 100 µM | MDA-MB-435 > 100 µM | OVCAR-8 > 100 µM | UACC-62 > 100 µM | MOLT-4 > 100 µM | SK-OV-3 > 100 µM | NCI-H460 > 100 µM | NCI-H23 > 100 µM | MDA-N > 100 µM | PC-3 > 100 µM | ACHN > 100 µM | 786-0 > 100 µM | M14 > 100 µM

CNC(=O)CNC(=O)C(NC(=O)CNC(=O)C1CCCN1C(=O)C(C)NC(=O)C(NC(C)=O)C(C)C)C(C)C (configuration not stated) (Ac-VAPGVG-NHMe; configuration not given here)
inactive: MCF7 > 100 µM | HT-29 > 100 µM | Malme-3M > 100 µM | U-251 > 100 µM | HCT-116 > 100 µM | HOP-62 > 100 µM | MDA-MB-435 > 100 µM | OVCAR-8 > 100 µM | UACC-62 > 100 µM | MOLT-4 > 100 µM | SK-OV-3 > 100 µM | NCI-H460 > 100 µM | NCI-H23 > 100 µM | MDA-N > 100 µM | PC-3 > 100 µM | ACHN > 100 µM | 786-0 > 100 µM | M14 > 100 µM

CC12CP(=O)(c3ccccc3)CC1c1ccccc1C2c1ccccc1 (configuration not stated)
inactive: MCF7 > 100 µM | HT-29 15.5 µM | Malme-3M 15.6 µM | KM12 17.3 µM | U-251 16.5 µM | HCT-116 14.3 µM | HOP-62 18.5 µM | MDA-MB-435 15.2 µM | OVCAR-8 15.2 µM | UACC-62 29.2 µM | MOLT-4 11.4 µM | SK-OV-3 40.1 µM | NCI-H460 14.5 µM | NCI-H23 20.7 µM | MDA-N 16.6 µM | PC-3 12.4 µM | ACHN 18 µM | 786-0 17.3 µM | M14 17.5 µM

CC(C)=CCN1CC(C)C(=O)Nc2ccccc21 (configuration not stated)
inactive: MCF7 61.4 µM | HT-29 > 100 µM | Malme-3M > 100 µM | KM12 > 100 µM | U-251 > 100 µM | HCT-116 > 100 µM | HOP-62 > 100 µM | MDA-MB-435 > 100 µM | OVCAR-8 78.9 µM | MOLT-4 > 100 µM | SK-OV-3 > 100 µM | NCI-H460 93.3 µM | NCI-H23 > 100 µM | MDA-N > 100 µM | PC-3 > 100 µM | ACHN > 100 µM | 786-0 > 100 µM | M14 > 100 µM

COC(=O)C(=O)C(C(=O)C(=O)Nc1ccc([N+](=O)[O-])cc1[N+](=O)[O-])c1nc2ccc(Cl)cc2nc1O (configuration not stated)
inactive: SNB-75 16.5 µM | MCF7 > 100 µM | HT-29 > 100 µM | KM12 > 100 µM | U-251 > 100 µM | HCT-116 > 100 µM | MDA-MB-435 > 100 µM | OVCAR-8 > 100 µM | UACC-62 > 100 µM | MOLT-4 > 100 µM | SK-OV-3 > 100 µM | NCI-H460 > 100 µM | NCI-H23 > 100 µM | MDA-N > 100 µM | PC-3 > 100 µM | ACHN > 100 µM | 786-0 > 100 µM | M14 > 100 µM

CCOC(=O)CCSc1nc2ccc(I)cc2c(=O)n1Cc1ccccc1
inactive: SNB-75 30.3 µM | MCF7 29.1 µM | HT-29 34.4 µM | Malme-3M 17.9 µM | KM12 22.3 µM | U-251 33 µM | HCT-116 18.8 µM | HOP-62 26.5 µM | MDA-MB-435 27.5 µM | OVCAR-8 37.5 µM | UACC-62 27.4 µM | SK-OV-3 > 69.8 µM | NCI-H460 22.6 µM | NCI-H23 15.6 µM | MDA-N 25.7 µM | PC-3 41.7 µM | ACHN 29.5 µM | 786-0 25.6 µM | M14 24.5 µM

CSc1ncnc2c1cnn2CCCCO
inactive: MCF7 > 100 µM | HT-29 > 100 µM | Malme-3M > 100 µM | KM12 > 100 µM | U-251 > 100 µM | HCT-116 > 100 µM | HOP-62 > 100 µM | MDA-MB-435 > 100 µM | UACC-62 > 100 µM | MOLT-4 > 100 µM | SK-OV-3 > 100 µM | NCI-H460 > 100 µM | NCI-H23 > 100 µM | MDA-N > 100 µM | PC-3 > 100 µM | ACHN > 100 µM | 786-0 > 100 µM | M14 > 100 µM

From ChEMBL document CHEMBL1201862, “PubChem BioAssay data set” (2004)
